Converted amounts (≈) assume the structure as drawn.

The target of the first assay is CYP3A4 (Homo sapiens (Human), UniProt P08684). The assay can be described thus: Inhibition of liver cytochrome P450 enzymes (pooled human liver microsomes). Format: in vitro ADME.
Chain of CYP3A4 (P08684 whole entry): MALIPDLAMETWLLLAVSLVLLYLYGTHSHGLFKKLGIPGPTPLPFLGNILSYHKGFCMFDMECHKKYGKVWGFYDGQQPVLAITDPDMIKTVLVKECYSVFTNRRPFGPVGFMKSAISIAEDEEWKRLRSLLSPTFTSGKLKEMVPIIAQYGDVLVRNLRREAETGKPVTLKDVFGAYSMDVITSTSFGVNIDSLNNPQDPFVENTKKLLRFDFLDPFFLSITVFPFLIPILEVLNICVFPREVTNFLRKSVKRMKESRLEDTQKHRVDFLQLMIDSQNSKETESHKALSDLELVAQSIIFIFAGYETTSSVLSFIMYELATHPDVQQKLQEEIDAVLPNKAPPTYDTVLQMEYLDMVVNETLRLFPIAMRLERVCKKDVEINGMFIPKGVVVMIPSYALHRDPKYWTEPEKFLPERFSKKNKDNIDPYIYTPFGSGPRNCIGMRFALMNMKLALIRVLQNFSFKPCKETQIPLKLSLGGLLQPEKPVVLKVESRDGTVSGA
Conditions: not given
The protocol: A. […] Solutions of each test compound were separately prepared at concentrations of 20000, 6000, 2000, 600, 200, and 60 μM by serial dilution with DMSO:MeCN (50:50 v/v). The individual test compound solutions were then diluted 20-fold with DMSO:MeCN:deionized water (5:5:180 v/v/v) to concentrations of 1000, 300, 100, 30, 10, and 3 μM. […] The mixed inhibitor solutions were then diluted 20-fold with DMSO:MeCN:deionized water (5:5:180 v/v/v) to concentrations of 300, 100, 30, 10, 3, 1, 0.3, and 0.1 μM. The percent of organic solvent attributable to the test compound or inhibitor mixture in the final reaction mixture was 2% v/v. Pooled human liver microsome suspension (20 mg/mL) was diluted with phosphate buffer to obtain a 5 mg/mL suspension. A solution of NADPH was prepared in phosphate buffer at a concentration of 5 mM. Separate stock solutions of each substrate were prepared in DMSO:MeCN (50:50 v/v), mixed, and diluted in phosphate buffer to obtain a single solution containing each substrate at five times its experimentally determined Km concentration. […] A portion of the supernatant was analyzed by gradient reverse-phase HPLC with detection by electrospray ionization triple quadrupole mass spectrometry in the positive ion mode. Data was fitted to sigmoid dose-response curves and the inhibitory potency of each test compound was determined as its IC50 value.
In general terms: Liver microsomes are vesicles of endoplasmic reticulum, rich in cytochrome P450 enzymes.
The IC50 is the concentration that inhibits the measured activity by half. Read a high IC50 as lower potency. For the compound `OC(Cn1cnnn1)(c1ccc(F)cc1F)C(F)(F)c1ccc(-c2ccc(C(F)(F)F)cc2)cn1` (stereo not drawn) [Example 2, 2-(2,4-Difluorophenyl)-1,1-difluoro-3-(1H-tetrazol-1-yl)-1-(5-(4-(trifluoromethyl)phenyl)pyridin-2-yl) propan-2-ol], the IC50 is more than 60 µM.

In a further assay the test system is C. albicans. The assay can be described thus: Minimum Inhibitory Concentration (MIC), CLSI M27-A2. It is filed as cell-based. To be noted: Candida albicans, 48 h, about 50% growth reduction, approximately 48 h at 35 °C, read-out: Candida MIC. How it is done: A. Minimum Inhibitory Concentration (MIC) Compounds were assessed for their ability to inhibit the growth of common strains of fungus, C. albicans using a standardized procedure (CLSI M27-A2). Stock solutions of the test compounds and standards were prepared in DMSO at 1,600 μg/mL (C. albicans). Eleven, serial, one-half dilutions of compounds were prepared in 96-well plates in RPMI+MOPS. The assay concentration ranges were 8-0.001 μg/mL (C. albicans). Cell suspensions of C. albicans were prepared and added to each well at concentrations of approximately 3.7×10^3 colony-forming-units per milliliter (cfu/mL). All testing was in duplicate. The inoculated plates were incubated for approximately 48 h at 35±1° C. At the completion of incubation the wells of each plate were evaluated visually for the presence of fungal growth. […] For QC purposes C. krusei isolate ATCC 6258 (4.0×10^3 cfu/mL) was included in the VOR assay.
For orientation: MIC means the smallest concentration in the dilution series that meets the test's criterion for growth inhibition. `OC(Cn1cnnn1)(c1ccc(F)cc1F)C(F)(F)c1ccc(-c2ccc(C(F)(F)F)cc2)cn1` (stereo not drawn) [Example 2, 2-(2,4-Difluorophenyl)-1,1-difluoro-3-(1H-tetrazol-1-yl)-1-(5-(4-(trifluoromethyl)phenyl)pyridin-2-yl) propan-2-ol]: the MIC is not above 0.016 µg/mL.
With `OC(Cn1cncn1)(Cn1cncn1)c1ccc(F)cc1F` [Fluconazole, reference compound], the MIC worked out at 0.5 µg/mL (≈ 1.63 µM).
On to `C[C@@H](c1ncncc1F)[C@](O)(Cn1cncn1)c1ccc(F)cc1F` [Voriconazole, reference compound], for which the MIC amounted to 0.016 µg/mL (≈ 0.0458 µM).

The assay is the same for the next values; noted with them: Candida albicans, rating scale, read-out: Candida MIC Rating.
As to `OC(Cn1cnnn1)(c1ccc(F)cc1F)C(F)(F)c1ccc(-c2ccc(C(F)(F)F)cc2)cn1` (stereo not drawn) [Example 2, 2-(2,4-Difluorophenyl)-1,1-difluoro-3-(1H-tetrazol-1-yl)-1-(5-(4-(trifluoromethyl)phenyl)pyridin-2-yl) propan-2-ol], the MIC was less than 0.5 µg/mL.
Turning to `O=C(Nc1ccc(-c2ccc(C(F)(F)C(O)(Cn3cnnn3)c3ccc(F)cc3F)nc2)cc1)C(F)(F)F` (stereo not drawn) [Example 37, N-(4-(6-(2-(2,4-Difluorophenyl)-1,1-difluoro-2-hydroxy-3-(1H-tetrazol-1-yl)propyl)pyridin-3-yl)phenyl)-2,2,2-trifluoroacetamide], the MIC is less than 0.5 µg/mL.
`OC(Cn1cnnn1)(c1ccc(F)cc1F)C(F)(F)c1ccc(-c2ccc(OC(F)F)cc2)cn1` (stereo not drawn) [Example 38, 1-(5-(4-(Difluoromethoxy)phenyl)pyridin-2-yl)-2-(2,4-difluorophenyl)-1,1-difluoro-3-(1H-tetrazol-1-yl)propan-2-ol]: the MIC was less than 0.5 µg/mL.
Regarding `OC(Cn1cnnn1)(c1ccc(F)cc1F)C(F)(F)c1ccc(-c2ccc(SC(F)F)cc2)cn1` (stereo not drawn) [Example 40], the MIC is less than 0.5 µg/mL.
In the case of `OC(Cn1cnnn1)(c1ccc(F)cc1F)C(F)(F)c1ccc(-c2ccc(CC(F)(F)F)cc2)cn1` (stereo not drawn) [Example 41, 2-(2,4-Difluorophenyl)-1,1-difluoro-3-(1H-tetrazol-1-yl)-1-(5-(4-(2,2,2-trifluoroethyl)phenyl)pyridin-2-yl)propan-2-ol], the MIC was less than 0.5 µg/mL.
On to `CNC(=O)c1ccc(-c2ccc(C(F)(F)C(O)(Cn3cnnn3)c3ccc(F)cc3F)nc2)cc1` (stereo not drawn) [Example 42, 4-(6-(2-(2,4-Difluorophenyl)-1,1-difluoro-2-hydroxy-3-(1H-tetrazol-1-yl)propyl)pyridin-3-yl)-N-methylbenzamide], for which the MIC is less than 0.5 µg/mL.
For the compound `CCOC(=O)C(F)(F)Oc1ccc(-c2ccc(C(F)(F)C(O)(Cn3cnnn3)c3ccc(F)cc3F)nc2)cc1` (stereo not drawn) [Example 43, Ethyl 2-(4-(6-(2-(2,4-difluorophenyl)-1,1-difluoro-2-hydroxy-3-(1H-tetrazol-1-yl)propyl)pyridin-3-yl)phenoxy)-2,2-difluoroacetate], the MIC is less than 0.5 µg/mL.
For `OC(Cn1cnnn1)(c1ccc(F)cc1F)C(F)(F)c1ccc(-c2ccc(OCCC(F)(F)F)cc2)cn1` (stereo not drawn) [Example 44, 2-(2,4-Difluorophenyl)-1,1-difluoro-3-(1H-tetrazol-1-yl)-1-(5-(4-(3,3,3-trifluoropropoxy)phenyl)pyridin-2-yl)propan-2-ol], the MIC was less than 0.5 µg/mL.
As to `OC(Cn1cnnn1)(c1ccc(F)cc1F)C(F)(F)c1ccc(-c2ccc(SCC(F)(F)F)cc2)cn1` (stereo not drawn) [Example 45, 2-(2,4-Difluorophenyl)-1,1-difluoro-3-(1H-tetrazol-1-yl)-1-(5-(4-((2,2,2-trifluoroethyl)thio)phenyl)pyridin-2-yl)propan-2-ol], the MIC is less than 0.5 µg/mL.
Turning to `CC(F)(c1ccc(-c2ccc(OC(F)(F)F)cc2)cn1)C(O)(Cn1cnnn1)c1ccc(F)cc1F` (stereo not drawn) [Example 46, 2-(2,4-Difluorophenyl)-3-fluoro-1-(1H-tetrazol-1-yl)-3-(5-(4-(trifluoromethoxy)phenyl)-pyridin-2-yl)butan-2-ol], the MIC was 0.5 to 1.5 µg/mL (≈ 0.982 to 2.94 µM).
`CC(F)(c1ccc(-c2ccc(F)cc2)cn1)C(O)(Cn1ncnn1)c1ccc(F)cc1F` (stereo not drawn) [Example 48, 2-(2,4-Difluorophenyl)-3-fluoro-3-(5-(4-fluorophenyl)pyridin-2-yl)-1-(2H-tetrazol-2-yl)butan-2-ol]: the MIC was in the range of 1.5 to 4 µg/mL (≈ 3.38 to 9.02 µM).

Staying with this assay, now noted: rating scale.
As for `OC(Cn1cnnn1)(c1ccc(F)cc1F)C(F)(F)c1ccc(-c2ccc(OCC(F)(F)F)cc2)cn1` (stereo not drawn) [Example 39, 2-(2,4-Difluorophenyl)-1,1-difluoro-3-(1H-tetrazol-1-yl)-1-(5-(4-(2,2,2-trifluoroethoxy)phenyl)pyridin-2-yl)propan-2-ol], the “Candida MIC Rating” value was “C (>1.5-4)”.
For `CC(F)(c1ccc(-c2ccc(OC(F)(F)F)cc2)cn1)C(O)(Cn1cnnn1)c1ccc(F)cc1F` (stereo not drawn) [Example 47, 2-(2,4-Difluorophenyl)-3-fluoro-1-(1H-tetrazol-1-yl)-3-(5-(4-(trifluoromethoxy)phenyl)-pyridin-2-yl)butan-2-ol], the “Candida MIC Rating” value is reported as “A (≤0.5)”.
`CC(F)(c1ccc(-c2ccc(F)cc2)cn1)C(O)(Cn1cnnn1)c1ccc(F)cc1F` (stereo not drawn) [Example 51, 2-(2,4-Difluorophenyl)-3-fluoro-3-(5-(4-fluorophenyl)pyridin-2-yl)-1-(1H-tetrazol-1-yl)butan-2-ol]: the “Candida MIC Rating” value is listed as “A (≤0.5)”.
With `CC(F)(c1ccc(-c2ccc(C(F)(F)F)cc2)cn1)C(O)(Cn1cnnn1)c1ccc(F)cc1F` (stereo not drawn) [Example 52, 2-(2,4-Difluorophenyl)-3-fluoro-1-(1H-tetrazol-1-yl)-3-(5-(4-(trifluoromethyl)phenyl)pyridin-2-yl)butan-2-ol], the “Candida MIC Rating” value was “C (>1.5-4)”.
Turning to `CC(F)(c1ccc(-c2ccc(C(F)(F)F)cc2)cn1)C(O)(Cn1cnnn1)c1ccc(F)cc1F` (stereo not drawn) [Example 53, 2-(2,4-Difluorophenyl)-3-fluoro-1-(1H-tetrazol-1-yl)-3-(5-(4-(trifluoromethyl)phenyl)pyridin-2-yl)butan-2-ol], the “Candida MIC Rating” value is given as “B (>0.5-1.5)”.
For `CC(F)(c1ccc(-c2ccc(Cl)cc2)cn1)C(O)(Cn1cnnn1)c1ccc(F)cc1F` (stereo not drawn) [Example 54, 3-(5-(4-Chlorophenyl)pyridin-2-yl)-2-(2,4-difluorophenyl)-3-fluoro-1-(1H-tetrazol-1-yl)butan-2-ol], the “Candida MIC Rating” value is on record as “C (>1.5-4)”.
Regarding `CC(F)(c1ccc(-c2ccc(Cl)cc2)cn1)C(O)(Cn1cnnn1)c1ccc(F)cc1F` (stereo not drawn) [Example 55, 3-(5-(4-Chlorophenyl)pyridin-2-yl)-2-(2,4-difluorophenyl)-3-fluoro-1-(1H-tetrazol-1-yl)butan-2-ol], the “Candida MIC Rating” value is “A (≤0.5)”.
With `CC(F)(c1ccc(-c2ccc(OCC(F)(F)F)cc2)cn1)C(O)(Cn1cnnn1)c1ccc(F)cc1F` (stereo not drawn) [Example 56, 2-(2,4-Difluorophenyl)-3-fluoro-1-(1H-tetrazol-1-yl)-3-(5-(4-(2,2,2-trifluoroethoxy)phenyl)pyridin-2-yl)butan-2-ol], the “Candida MIC Rating” value was “C (>1.5-4)”.
Regarding `CC(F)(c1ccc(-c2ccc(OCC(F)(F)F)cc2)cn1)C(O)(Cn1cnnn1)c1ccc(F)cc1F` (stereo not drawn) [Example 57, 2-(2,4-Difluorophenyl)-3-fluoro-1-(1H-tetrazol-1-yl)-3-(5-(4-(2,2,2-trifluoroethoxy)phenyl)pyridin-2-yl)butan-2-ol], the “Candida MIC Rating” value was “A (≤0.5)”.

Values taken from patent US10221160B2, “Metalloenzyme inhibitor compounds” (Mycovia Pharmaceuticals, Inc., priority 2012, dated 2019).
